Data from patent US8058307B2, “Alcanoic acid amides substituted by saturated O-heterocycles” (Novartis AG, priority 2005, dated 2011).
pIC50: −log10 of the molar value.

Biological target: T1, renin (Homo sapiens, UniProt P00797)
T1 construct: This test measures the formation of angiotensin I in human plasma; from tissue; host or cells: human plasma
T1 sequence (P00797 67-406): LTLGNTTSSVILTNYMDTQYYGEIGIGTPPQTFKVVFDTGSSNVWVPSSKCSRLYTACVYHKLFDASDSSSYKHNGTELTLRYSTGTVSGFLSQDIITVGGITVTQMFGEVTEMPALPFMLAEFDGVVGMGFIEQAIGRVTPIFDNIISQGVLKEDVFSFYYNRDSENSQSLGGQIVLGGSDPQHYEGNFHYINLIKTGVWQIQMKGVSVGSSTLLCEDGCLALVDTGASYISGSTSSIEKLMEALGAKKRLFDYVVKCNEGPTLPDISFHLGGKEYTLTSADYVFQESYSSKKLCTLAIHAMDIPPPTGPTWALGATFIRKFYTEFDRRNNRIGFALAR
Test: in vitro test of Nussberger et al.: formation of angiotensin I in human plasma, radio-immunoassay
Type: biochemical
Details: concentration which reduces the formation of angiotensin I in human plasma by 50%
Procedure: The effect of renin inhibitors is detected inter alia experimentally by means of in vitro tests where the reduction in the formation of angiotensin I is measured in various systems (human plasma, purified human renin together with synthetic or natural renin substrate). The following in vitro test of Nussberger et al. (1987) J. Cardiovascular Pharmacol., Vol. 9, pp. 39-44, is used inter alia. This test measures the formation of angiotensin I in human plasma. The amount of angiotensin I formed is determined in a subsequent radio-immunoassay. The effect of inhibitors on the formation of angiotensin I is tested in this system by adding various concentrations of these substances. The IC50 is defined as the concentration of the particular inhibitor which reduces the formation of angiotensin I by 50%.

`COCCCOc1cc(C[C@@H](C[C@H](N)[C@@H](O)C[C@H](C(=O)NC[C@H]2CCCO2)C(C)C)C(C)C)ccc1OC` [Example 1, 5-Amino-4-hydroxy-2-isopropyl-7-[4-methoxy-3-(3-methoxypropoxy)benzyl]-8-methyl-N-(tetrahydrofuran-2(R)-ylmethyl)nonamide] gave a pIC50 of 8.59.
